Measurements: publication PMC6344480 (Nature Communications, 2019)

Molecular target: T1, AsfvLIG (African swine fever virus BA71V, UniProt P35970)
T1 construct: gene LIG
Settings: non-catalytic AsfvLIG:DNA complex; no Mg2+; bound in the adenylation domain near catalytic Lys151

T1 sequence (P35970 whole entry, looked up): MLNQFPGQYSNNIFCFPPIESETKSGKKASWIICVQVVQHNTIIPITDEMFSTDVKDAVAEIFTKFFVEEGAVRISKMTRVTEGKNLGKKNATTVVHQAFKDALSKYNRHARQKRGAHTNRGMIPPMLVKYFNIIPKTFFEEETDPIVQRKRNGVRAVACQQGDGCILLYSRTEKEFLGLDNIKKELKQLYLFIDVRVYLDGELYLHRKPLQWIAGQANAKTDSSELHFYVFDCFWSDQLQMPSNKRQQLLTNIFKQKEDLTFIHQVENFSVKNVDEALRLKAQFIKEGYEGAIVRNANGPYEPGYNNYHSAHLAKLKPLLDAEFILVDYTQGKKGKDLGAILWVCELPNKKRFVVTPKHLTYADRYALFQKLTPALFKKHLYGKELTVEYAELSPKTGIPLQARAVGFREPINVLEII

Nc1ncnc2c1ncn2[C@@H]1O[C@H](COP(=O)(O)OP(=O)(O)OP(=O)(O)O)[C@@H](O)[C@H]1O [ATP]
X-ray crystal structure (Se-SAD): the ATP is bound by the AD domain and stabilized by various interactions
